The values that follow come from US10376481B2, “Compounds and methods for inhibiting NHE-mediated antiport in the treatment of disorders associated with fluid retention or salt overload and gastrointestinal tract disorders” (ARDELYX, INC, priority 2012, dated 2019).

A value given as a limit tells only on which side of the number the result lay.

In assay [1] the target is T1, human NHE3 (Homo sapiens, UniProt P48764).
T1 sequence (P48764 26-834): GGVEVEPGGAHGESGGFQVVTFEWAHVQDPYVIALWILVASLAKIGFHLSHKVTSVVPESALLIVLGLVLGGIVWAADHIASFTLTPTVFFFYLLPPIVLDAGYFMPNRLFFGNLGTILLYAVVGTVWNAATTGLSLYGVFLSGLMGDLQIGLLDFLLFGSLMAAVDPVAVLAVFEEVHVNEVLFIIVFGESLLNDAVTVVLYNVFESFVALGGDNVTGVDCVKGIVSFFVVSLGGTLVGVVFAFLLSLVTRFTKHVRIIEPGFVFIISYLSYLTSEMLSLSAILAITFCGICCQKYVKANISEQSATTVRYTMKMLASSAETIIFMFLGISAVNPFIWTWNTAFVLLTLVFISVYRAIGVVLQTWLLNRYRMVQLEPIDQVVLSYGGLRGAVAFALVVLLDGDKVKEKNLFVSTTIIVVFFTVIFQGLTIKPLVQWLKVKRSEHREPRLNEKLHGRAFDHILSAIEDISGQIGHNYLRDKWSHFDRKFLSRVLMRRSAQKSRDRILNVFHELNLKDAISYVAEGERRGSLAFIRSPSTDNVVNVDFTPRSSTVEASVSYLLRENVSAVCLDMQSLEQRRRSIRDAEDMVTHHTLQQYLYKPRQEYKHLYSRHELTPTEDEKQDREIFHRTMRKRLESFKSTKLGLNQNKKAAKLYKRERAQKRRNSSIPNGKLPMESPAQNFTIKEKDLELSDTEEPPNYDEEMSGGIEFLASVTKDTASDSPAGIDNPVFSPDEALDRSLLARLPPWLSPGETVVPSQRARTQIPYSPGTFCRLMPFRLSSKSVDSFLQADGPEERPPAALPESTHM
Briefly: Cell-based assay of NHE-3 activity (persistent inhibition), human. To be noted: PS120 fibroblasts stably expressing human NHE3, 60 min incubation then washout; for IC50: read-out: pIC50 (human Persistence assay) (converted).

Assay [2] addresses T1, human NHE3. The experiment in a line: Cell-based assay of NHE-3 activity (human NHE3 inhibition assay). The settings on record: OK cells with human NHE-3 gene, BCECF pH recovery, 0-30 μM test compound; read-out: Human NHE3 pIC50 (converted). On the set-up: expressed in transfected cells; host or cells: Opossum kidney (OK) cells (ATCC), electroporated. Summed up:
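Opossum kidney cells electroporated with rat or human NHE-3, loaded with 5 μM BCECF-AM in NH4Cl-HEPES pH 7.4 for 30 min at RT, then acidified 10 min in Na+-free choline HEPES. Na+-dependent pH recovery rates from BCECF fluorescence, averaged over ≥2 replicates, gave pIC50.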

As to `CN(C)[C@H]1Cc2ccccc2[C@@H]1Oc1ccc(S(=O)(=O)NCCOCCOCCNC(=O)NCCCCNC(=O)NCCOCCOCCNS(=O)(=O)c2ccc(O[C@H]3c4ccccc4C[C@@H]3N(C)C)cc2)cc1` [Example 20], the “% inhibition (human Persistence assay)” value at human NHE3 [1] was “B (40-70%)”. Moreover, the IC50 at human NHE3 [1] and on human NHE3 [2] was under 100 nM each time.
Turning to `O=C(NCCCCNC(=O)NCCOCCOCCNS(=O)(=O)c1ccc(O[C@H]2c3ccccc3C[C@@H]2N2CCCCC2)cc1)NCCOCCOCCNS(=O)(=O)c1ccc(O[C@H]2c3ccccc3C[C@@H]2N2CCCCC2)cc1` [Example 14], on human NHE3 [1], the “% inhibition (human Persistence assay)” value is “C (>70%)” and the IC50 was over 1000 nM. Moreover, the IC50 at human NHE3 [2] was under 100 nM.
With `O=C(NCCCCNC(=O)NCCOCCOCCNS(=O)(=O)c1ccc(O[C@H]2c3cc(Cl)cc(F)c3C[C@@H]2N2CCCCC2)cc1)NCCOCCOCCNS(=O)(=O)c1ccc(O[C@H]2c3cc(Cl)cc(F)c3C[C@@H]2N2CCCCC2)cc1` [Example 24], at human NHE3 [1], the “% inhibition (human Persistence assay)” value is “C (>70%)” and the IC50 is under 100 nM. Also, the IC50 at human NHE3 [2] was under 100 nM.
Regarding `O=C(NCCCCNC(=O)NCCOCCOCCNS(=O)(=O)c1ccc(O[C@H]2c3cc(Cl)cc(F)c3C[C@@H]2N2CC[C@@H](O)C2)cc1)NCCOCCOCCNS(=O)(=O)c1ccc(O[C@H]2c3cc(Cl)cc(F)c3C[C@@H]2N2CC[C@@H](O)C2)cc1` [Example 4, (S,S,R)—N,N′-(10,17-dioxo-3,6,21,24-tetraoxa-9,11,16,18-tetraazahexacosane-1,26-diyl)bis(4-((1S,2S)-6-chloro-4-fluoro-2-((R)-3-hydroxypyrrolidin-1-yl)-2,3-dihydro-1H-inden-1-yloxy)benzenesulfonamide)], on human NHE3 [1], the “% inhibition (human Persistence assay)” value is listed as “B (40-70%)” and the IC50 was under 100 nM. The IC50 at human NHE3 [2] is under 100 nM.
